# Measurements from paper PMC9250534, “Synthesis and direct assay of large macrocycle diversities by combinatorial late-stage modification at picomole scale” (Nature Communications, 2022).
# Numbered stars: 1 amine (or outer) side, 2 acyl side, 3 side chain; on linkers, the order of the positions; unused ones are H or OH. Bridge positions count the residues as written; N and C are the ends. Square brackets hold non-standard residues; d marks the D form. Peptide text beside a SMILES is read from it. * marks the point of attachment. ξ: configuration not given here. ξPro(4-NHCO(5-Cl-2-thienyl)) = O=C(NC1CNC(C(=O)O)C1)c1ccc(Cl)s1; Pyrazinoyl(5-oxo-4H) = O=C(c1c[nH]c(=O)cn1)*; 1,2,3Thiadiazole5CO(4-Me) = Cc1nnsc1C(=O)*; 2Thenoyl(5-Cl) = O=C(c1ccc(Cl)s1)*; Cysteamide = C(CS[*:3])N[*:1]; X3 = O=C(Cc1c[nH]c2ccccc12)*; 3Amb = NCc1cccc(C(=O)O)c1; Api = NC1(C(=O)O)CCNCC1; Bz = O=C(c1ccccc1)*; Mpa = O=C(O)CCS
# Target: T1, thrombin (Homo sapiens, UniProt P00734)
# T1 construct: consists of two polypeptide chains of 36 (light chain) and 259 amino acid
# Experiment: Thrombin inhibition screen of crude macrocycle reactions (residual thrombin activity, fluorogenic substrate Z-Gly-Gly-Arg-AMC)
# Assay type: biochemical
# Settings: 10 µM macrocycle concentration; for percent residual thrombin activity: crude reactions, Library 1a-l, scaffold AA1-AA2-AA3 combined with 1-16 or '-'; for % thrombin activity, Original screen / % thrombin activity, Repeat screen: macrocycles containing acid 14, crude reaction; for % thrombin activity, Repeat screen: replicate reaction and screen
# Description: As a proof-of-concept, we screened the macrocycle library for inhibitors against thrombin, which is the central blood coagulation protease and an important therapeutic target. We conducted the screen for thrombin-inhibiting macrocycles in 384-well reaction plates. Briefly, each well contained a unique macrocycle (10 μM), 5 μL of thrombin (2 nM final conc.), and subsequently, 5 µL of a fluorogenic substrate to measure the residual thrombin activity and the extent of protease inhibition.
# The assays were performed in 384-well plates using Tris buffer at pH 7.4 (100 mM Tris-Cl, 150 mM NaCl, 10 mM MgCl2, 1 mM CaCl2, 0.1% w/v BSA, 0.01% v/v Triton-X100, and 0.6% v/v DMSO) using thrombin at a final concentration of 2 nM and the fluorogenic substrate Z-Gly-Gly-Arg-AMC at a final concentration of 50 μM. Thrombin (5 μL, 6 nM) in the Tris-Cl buffer described above was added to each peptide using a BioTek MultiFlo microplate dispenser, and incubated for 10 min at room temperature. […] Data was collected and exported using the Tecan Infinite M200 Pro instrument software. […] For the negative controls (20 wells containing DMSO but no macrocycle), an average slope was calculated. The percent of thrombin inhibition was calculated by dividing the slopes and multiplying the results by 100.
structure (smiles),measurement,value
O=C1CCSSCCNC(=O)[C@H](CCCCNC(=O)c2c[nH]c(=O)[nH]c2=O)NC(=O)[C@H](Cc2c[nH]cn2)NC(=O)c2ccc(cc2)CN1 [B3-H-D1/11],percent residual thrombin activity,112.941%
CC[C@H](C)[C@@H]1NC(=O)CCNC(=O)C2(CCN(C(=O)c3ccc(Cl)s3)CC2)NC(=O)CCSSCCNC1=O [X D6 B2 I],"% thrombin activity, Original screen",104.4%
same,"% thrombin activity, Repeat screen",109.7%
C[C@H]1NC(=O)CCSSCCNC(=O)[C@@H]2CCCN2C(=O)[C@H](CCCCNC(=O)c2ccc(Cl)s2)NC1=O [a-D1-B1/14] ([Mpa][dA]K(2Thenoyl(5-Cl))P-Cysteamide; disulfide 1-C),percent residual thrombin activity,109.871%
NCCC[C@@H]1NC(=O)CCSSCCNC(=O)[C@H](Cc2ccc(O)cc2)NC(=O)c2cccc(c2)CNC1=O [D2-B5-Y/-],percent residual thrombin activity,110.083%
CC1NC(=O)CCSSCCNC(=O)C(CCCCNC(=O)c2ccccc2)NC(=O)C2CCCN2C1=O (stereo not drawn) [a-B1-D1/1] ([Mpa]APK(Bz)-Cysteamide; disulfide 1-C; configuration not given here),percent residual thrombin activity,107.016%
CC(C)[C@@H]1NC(=O)[C@H](CCCN)NC(=O)C2(CC2)CNC(=O)CCSSCCNC1=O [B6-D2-V/-],percent residual thrombin activity,112.468%
O=C1CCNC(=O)[C@@H](Cc2ccc(O)cc2)NC(=O)[C@H](CNC(=O)c2ccc(Cl)s2)NC(=O)CCSSCCN1 [X D3 y B2],"% thrombin activity, Original screen",78.6%
same,"% thrombin activity, Repeat screen",75.2%
CC[C@H](C)[C@@H]1NC(=O)[C@H](CCCNC(=O)c2cnccn2)NC(=O)c2cccc(c2)CNC(=O)CCSSCCNC1=O [B5-D2-I/2],percent residual thrombin activity,109.077%
O=C1CCSSCCNC(=O)[C@H](Cc2c[nH]c3ccccc23)NC(=O)[C@H](CCCNC(=O)c2ccc(Cl)s2)NC(=O)C2(CC2)CN1 [X B6 D2 W],"% thrombin activity, Original screen",87.3%
same,"% thrombin activity, Repeat screen",88.9%
COc1ccc(C(=O)NCCCC[C@@H]2NC(=O)[C@H](Cc3cnc[nH]3)NC(=O)c3ccc(cc3)CNC(=O)CCSSCCNC2=O)cn1 [B3-H-D1/10],percent residual thrombin activity,107.476%
O=C1NCCSSCCC(=O)N2CCC[C@H]2C(=O)NC2(CCN(C(=O)c3ccc(Cl)s3)CC2)C(=O)N[C@H]1Cc1c[nH]cn1 [X B1 D6 H] ([Mpa]P[Api](2Thenoyl(5-Cl))H-Cysteamide; disulfide 1-C),"% thrombin activity, Original screen",90.0%
same,"% thrombin activity, Repeat screen",94.0%
CC[C@H](C)[C@@H]1NC(=O)CCSSCCNC(=O)[C@H]2CCCN(C2)C(=O)[C@H](CCCCNC(=O)c2c[nH]c(=O)[nH]c2=O)NC1=O [I-D1-B4/11],percent residual thrombin activity,113.791%
"Cc1nnsc1C(=O)NCCCC[C@@H]1NC(=O)[C@@H]2CCCN2C(=O)CCSSCCNC(=O)[C@H](CCC(N)=O)NC1=O [B1-D1-Q/15] ([Mpa]PK(1,2,3Thiadiazole5CO(4-Me))Q-Cysteamide; disulfide 1-C)",percent residual thrombin activity,113.502%
CC[C@H](C)[C@@H]1NC(=O)[C@H](CCCNC(=O)c2ccco2)NC(=O)c2cccc(c2)CNC(=O)CCSSCCNC1=O [B5-D2-I/16],percent residual thrombin activity,105.125%
CC(C)[C@@H]1NC(=O)CCSSCCNC(=O)[C@@H]2CCCN2C(=O)[C@H](CCCCNC(=O)Cc2c[nH]c3ccccc23)NC1=O [V-D1-B1/12] ([Mpa]VK(X3)P-Cysteamide; disulfide 1-C),percent residual thrombin activity,105.267%
O=C1CCSSCCNC(=O)C2CCCN2C(=O)C2CC(NC(=O)c3ccc(Cl)s3)CN2C(=O)C(Cc2ccc(O)cc2)N1 (stereo not drawn) [X Y D5 B1] ([Mpa]Y[ξPro(4-NHCO(5-Cl-2-thienyl))]P-Cysteamide; disulfide 1-C; configuration not given here),"% thrombin activity, Original screen",92.3%
same,"% thrombin activity, Repeat screen",97.0%
CC(C)[C@@H]1NC(=O)CCSSCCNC(=O)[C@@H]2CCCN2C(=O)[C@H](CCCCNC(=O)c2c[nH]c(=O)cn2)NC1=O [V-D1-B1/9] ([Mpa]VK(Pyrazinoyl(5-oxo-4H))P-Cysteamide; disulfide 1-C),percent residual thrombin activity,107.119%
O=C1CNC(=O)[C@H](Cc2ccc(O)cc2)NC(=O)[C@@H]2CCCN2C(=O)[C@@H](NC(=O)c2ccc(Cl)s2)CSSCCN1 [C B1 Y G] ({2Thenoyl(5-Cl)}-CPYG-Cysteamide; disulfide 1-C),"% thrombin activity, Original screen",98.5%
same,"% thrombin activity, Repeat screen",102.3%
C[C@H]1NC(=O)CCSSCCNC(=O)c2cccc(c2)CNC(=O)[C@H](CCCCNC(=O)c2ccc(Cl)s2)NC1=O [a-D1-B5/14],percent residual thrombin activity,102.51%
CC(C)C[C@@H]1NC(=O)C2(CC2)CNC(=O)CCSSCCNC(=O)[C@H](CCCNC(=O)c2ccc(Cl)s2)NC1=O [X B6 L D2],"% thrombin activity, Original screen",60.0%
same,"% thrombin activity, Repeat screen",43.4%
O=C1CCSSCCNC(=O)C(Cc2c[nH]cn2)NC(=O)CCNC(=O)C(CNC(=O)c2ccc(Cl)s2)N1 (stereo not drawn) [X D3 B2 H],"% thrombin activity, Original screen",78.9%
same,"% thrombin activity, Repeat screen",71.1%
O=C1CCSSCCNC(=O)[C@H](Cc2c[nH]c3ccccc23)NC(=O)[C@H](CCCNC(=O)Cc2c[nH]c3ccccc23)NC(=O)C2(CC2)CN1 [B6-D2-W/12],percent residual thrombin activity,93.2541%
COc1ccc(C(=O)NCCCC[C@@H]2NC(=O)[C@@H](C)NC(=O)CCSSCCNC(=O)c3cccc(c3)CNC2=O)cn1 [a-D1-B5/10],percent residual thrombin activity,109.062%
CC(C)C[C@@H]1NC(=O)CCSSCCNC(=O)[C@H](CCCCNC(=O)c2ccc(Cl)s2)NC(=O)C2(CC2)CNC1=O [X L B6 D1],"% thrombin activity, Original screen",94.8%
same,"% thrombin activity, Repeat screen",97.2%
C[C@H]1NC(=O)[C@@H]2CCCN2C(=O)[C@H](CCCCNC(=O)c2ccc(Cl)s2)NC(=O)CCSSCCNC1=O [X D1 B1 a] ([Mpa]K(2Thenoyl(5-Cl))P[dA]-Cysteamide; disulfide 1-C),"% thrombin activity, Original screen",96.4%
same,"% thrombin activity, Repeat screen",103.7%
CC1NC(=O)CCSSCCNC(=O)C2CCCN(C2)C(=O)C(CNC(=O)c2ccc(Cl)s2)NC1=O (stereo not drawn) [X a D3 B4],"% thrombin activity, Original screen",97.7%
same,"% thrombin activity, Repeat screen",98.7%
O=C1CCSSCCNC(=O)c2ccc(cc2)CNC(=O)[C@H](CCCCNC(=O)c2ccc(Cl)s2)NC(=O)[C@@H](Cc2ccccc2)N1 [X f D1 B3],"% thrombin activity, Original screen",100.5%
same,"% thrombin activity, Repeat screen",105.5%
O=C1CCSSCCNC(=O)[C@@H](Cc2ccc(O)cc2)NC(=O)CCNC(=O)[C@H](CCCCNC(=O)c2c[nH]c(=O)cn2)N1 [D1-B2-y/9],percent residual thrombin activity,109.951%
CC(C)C[C@@H]1NC(=O)CCSSCCNC(=O)c2cccc(c2)CNC(=O)[C@H](CCCNC(=O)c2ccc(Cl)s2)NC1=O [X L D2 B5],"% thrombin activity, Original screen",100.1%
same,"% thrombin activity, Repeat screen",95.2%
O=C1CCSSCCNC(=O)c2ccc(cc2)CNC(=O)[C@H](Cc2c[nH]c3ccccc23)NC(=O)[C@H](CCCNC(=O)c2ccc(Cl)s2)N1 [D2-W-B3/14],percent residual thrombin activity,109.796%
Cc1nnsc1C(=O)NCCCC[C@@H]1NC(=O)CCSSCCNC(=O)[C@@H](Cc2ccc(O)cc2)NC(=O)[C@H]2CCCN(C2)C1=O [D1-B4-y/15],percent residual thrombin activity,108.72%
C[C@H]1NC(=O)CCSSCCNC(=O)c2cccc(c2)CNC(=O)[C@H](CCCCN)NC1=O [a-D1-B5/-] ([Mpa][dA]K[3Amb]-Cysteamide; disulfide 1-C),percent residual thrombin activity,108.99%
O=C1CCNC(=O)[C@H](CO)NC(=O)[C@H](CCCNC(=O)Cc2c[nH]c3ccccc23)NC(=O)CCSSCCN1 [D2-S-B2/12],percent residual thrombin activity,110.146%
O=C1CCSSCCNC(=O)[C@H](CCCCNC(=O)c2c[nH]c(=O)[nH]c2=O)NC(=O)[C@H](Cc2ccc(O)cc2)NC(=O)C2(CC2)CN1 [B6-Y-D1/11],percent residual thrombin activity,105.574%
CC(C)C[C@@H]1NC(=O)CCNC(=O)CCSSCCNC(=O)[C@H](CCCNC(=O)c2cnccn2)NC1=O [B2-L-D2/2],percent residual thrombin activity,112.903%
NC(=O)CCC1NC(=O)CCNC(=O)C(CNC(=O)c2ccc(Cl)s2)NC(=O)CCSSCCNC1=O (stereo not drawn) [X D3 B2 Q],"% thrombin activity, Original screen",91.4%
same,"% thrombin activity, Repeat screen",92.1%
CC1NC(=O)C(CNC(=O)c2ccc(Cl)s2)NC(=O)CCSSCCNC(=O)c2cccc(c2)CNC1=O (stereo not drawn) [X D4 a B5],"% thrombin activity, Original screen",103.5%
same,"% thrombin activity, Repeat screen",106.9%
NC(=O)CC[C@@H]1NC(=O)[C@H](CNC(=O)c2ccc(Cl)s2)NC(=O)CCSSCCNC(=O)C2(CC2)CNC1=O [X D3 Q B6],"% thrombin activity, Original screen",72.8%
same,"% thrombin activity, Repeat screen",67.3%
O=C1CCSSCCNC(=O)[C@H](CNC(=O)c2ccc(Cl)s2)NC(=O)[C@H](Cc2ccccc2)NC(=O)CCN1 [X B2 F D3],"% thrombin activity, Original screen",34.0%
same,"% thrombin activity, Repeat screen",33.5%
O=C1NC2(CCN(C(=O)c3ccc(Cl)s3)CC2)C(=O)N[C@@H](CO)C(=O)NCCSSCCC(=O)N2CCC[C@H]1C2 [X B4 D6 S],"% thrombin activity, Original screen",87.7%
same,"% thrombin activity, Repeat screen",85.3%
O=C1CCSSCCNC(=O)[C@H](Cc2ccc(O)cc2)NC(=O)[C@H](CCCNC(=O)c2c[nH]c(=O)cn2)NC(=O)C2(CC2)CN1 [B6-D2-Y/9],percent residual thrombin activity,103.418%
C[C@H]1NC(=O)CCSSCCNC(=O)[C@H]2CCCN(C2)C(=O)[C@H](CCCCNC(=O)c2ccccc2)NC1=O [a-D1-B4/1],percent residual thrombin activity,107.784%
